Test results reported in US12685726B2, “Sulfoximines as inhibitors of NaV1.8” (Gruenenthal GmbH, priority 2022, dated 2026).

Molecular target: T1, human NaV 1.8 (Homo sapiens, UniProt Q9Y5Y9)
T1 construct: expressed in transfected cells; host or cells: HEK (recombinant cell line)
Experiment: Automated whole-cell patch clamp (Qube384) voltage-clamp recordings of sodium currents in HEK-NaV1.8 cell line
Format: cell-based
Settings: read-out: Potency category (human NaV 1.8 IC50)
Experimental: Electrophysiology: Voltage-Clamp Recordings
The following NaV1.8 recombinant cell line was used for recordings: HEK-NaV1.8 (NM_006514.1) with b3 (NM_018400.3).
Sodium currents were measured using the patch clamp technique in the whole-cell configuration using the Qube384 (Sophion A/S, Copenhagen, Denmark) automated voltage clamp platform. “Multi hole” plates were used for the cell line expressing NaV1.8 while “single hole” plates were used for the recombinant cell lines expressing the other subtypes. Appropriate filters (for minimum seal resistance and minimum current size) and series resistance compensation (for high quality sodium channel recordings) were applied. Data was collected at ambient room temperature or 19° C.
The recording extracellular solution contained (in mM): NaCl 145 mM, KCl 4 mM, CaCl2 2 mM, MgCl2 1 mM, HEPES 10 mM, Glucose 10 mM, pH 7.4 (NaOH). The intracellular recording solution contained (in mM): CsF 120 mM, CsCl 20 mM, NaCl 10 mM, EGTA 10 mM, HEPES 10 mM, pH 7.2 (CsOH). Currents were recorded at 25 kHz sampling frequency and filtered at 5 kHz. Series resistance compensation was applied at 65%.
Vehicle (VEH) is the control condition where cells are exposed to 0.3% DMSO without compound. All runs include VEH controls being exposed to the same voltage protocols to assess non-compound related phenomena such as run down and then used to isolate compound dependent effects on currents.
To check for state-dependent inhibition, the following voltage-sequence was applied every 20 seconds:
From a resting membrane potential of −120 mV, the first test pulse (P1; 20 ms to −10 mV) was applied to check for channels in the Resting State followed by a brief recovery (100 ms to −120 mV), then holding the membrane voltage to V1/2 (4 seconds at voltage to obtain half the channel at Rest and half Inactivated) with a subsequent second test pulse (P2; 20 ms to −10 mV) to check for channels in the Inactivated State, followed by another brief recovery (20 ms to −120 mV) and a final third test pulse (P3; 20 ms to −10 mV) to check for recovered channels.
To check for frequency-dependent inhibition, a 10 Hz protocol and a 20 Hz protocol were applied; namely,
From a resting membrane potential of −120 mV, 40-pulses (10 ms to −10 mV) was applied at 10 Hz (at 100 ms between pulses) and then at 20 Hz (at 50 ms between pulses).
Each parameter was recorded (P1, P2, P3, P40 from 10 Hz and P40 from 20 Hz) during a control period (lasting 5 minutes) when establishing the baseline and during compound period (lasting ~12 minutes) when test compound (or vehicle) was applied. For each parameter, the value at the end of the compound period was normalized to the vehicle baseline; as follows
To adjust for any variance in the Na^+ current signal during the compound period (owing to cumulative inactivation independent of compound or shifts in biophysics over time), a dedicated segment of the recording wells in each 384 plate were dedicated to having only vehicle exposure. These vehicle-only recordings were used to correct for any apparent “run-up” or “run-down” in the experiment.
The adjusted inhibition was calculated as follows: […]
Percent inhibition was determined and IC50 values were calculated using a 4 parameter logistic model within XLFit Software (IDBS, Boston MA): F
[formula] where A and B are the maximal and minimum inhibition respectively, C is the IC50 concentration and D is the (Hill) slope.

T1 sequence (Q9Y5Y9 whole entry): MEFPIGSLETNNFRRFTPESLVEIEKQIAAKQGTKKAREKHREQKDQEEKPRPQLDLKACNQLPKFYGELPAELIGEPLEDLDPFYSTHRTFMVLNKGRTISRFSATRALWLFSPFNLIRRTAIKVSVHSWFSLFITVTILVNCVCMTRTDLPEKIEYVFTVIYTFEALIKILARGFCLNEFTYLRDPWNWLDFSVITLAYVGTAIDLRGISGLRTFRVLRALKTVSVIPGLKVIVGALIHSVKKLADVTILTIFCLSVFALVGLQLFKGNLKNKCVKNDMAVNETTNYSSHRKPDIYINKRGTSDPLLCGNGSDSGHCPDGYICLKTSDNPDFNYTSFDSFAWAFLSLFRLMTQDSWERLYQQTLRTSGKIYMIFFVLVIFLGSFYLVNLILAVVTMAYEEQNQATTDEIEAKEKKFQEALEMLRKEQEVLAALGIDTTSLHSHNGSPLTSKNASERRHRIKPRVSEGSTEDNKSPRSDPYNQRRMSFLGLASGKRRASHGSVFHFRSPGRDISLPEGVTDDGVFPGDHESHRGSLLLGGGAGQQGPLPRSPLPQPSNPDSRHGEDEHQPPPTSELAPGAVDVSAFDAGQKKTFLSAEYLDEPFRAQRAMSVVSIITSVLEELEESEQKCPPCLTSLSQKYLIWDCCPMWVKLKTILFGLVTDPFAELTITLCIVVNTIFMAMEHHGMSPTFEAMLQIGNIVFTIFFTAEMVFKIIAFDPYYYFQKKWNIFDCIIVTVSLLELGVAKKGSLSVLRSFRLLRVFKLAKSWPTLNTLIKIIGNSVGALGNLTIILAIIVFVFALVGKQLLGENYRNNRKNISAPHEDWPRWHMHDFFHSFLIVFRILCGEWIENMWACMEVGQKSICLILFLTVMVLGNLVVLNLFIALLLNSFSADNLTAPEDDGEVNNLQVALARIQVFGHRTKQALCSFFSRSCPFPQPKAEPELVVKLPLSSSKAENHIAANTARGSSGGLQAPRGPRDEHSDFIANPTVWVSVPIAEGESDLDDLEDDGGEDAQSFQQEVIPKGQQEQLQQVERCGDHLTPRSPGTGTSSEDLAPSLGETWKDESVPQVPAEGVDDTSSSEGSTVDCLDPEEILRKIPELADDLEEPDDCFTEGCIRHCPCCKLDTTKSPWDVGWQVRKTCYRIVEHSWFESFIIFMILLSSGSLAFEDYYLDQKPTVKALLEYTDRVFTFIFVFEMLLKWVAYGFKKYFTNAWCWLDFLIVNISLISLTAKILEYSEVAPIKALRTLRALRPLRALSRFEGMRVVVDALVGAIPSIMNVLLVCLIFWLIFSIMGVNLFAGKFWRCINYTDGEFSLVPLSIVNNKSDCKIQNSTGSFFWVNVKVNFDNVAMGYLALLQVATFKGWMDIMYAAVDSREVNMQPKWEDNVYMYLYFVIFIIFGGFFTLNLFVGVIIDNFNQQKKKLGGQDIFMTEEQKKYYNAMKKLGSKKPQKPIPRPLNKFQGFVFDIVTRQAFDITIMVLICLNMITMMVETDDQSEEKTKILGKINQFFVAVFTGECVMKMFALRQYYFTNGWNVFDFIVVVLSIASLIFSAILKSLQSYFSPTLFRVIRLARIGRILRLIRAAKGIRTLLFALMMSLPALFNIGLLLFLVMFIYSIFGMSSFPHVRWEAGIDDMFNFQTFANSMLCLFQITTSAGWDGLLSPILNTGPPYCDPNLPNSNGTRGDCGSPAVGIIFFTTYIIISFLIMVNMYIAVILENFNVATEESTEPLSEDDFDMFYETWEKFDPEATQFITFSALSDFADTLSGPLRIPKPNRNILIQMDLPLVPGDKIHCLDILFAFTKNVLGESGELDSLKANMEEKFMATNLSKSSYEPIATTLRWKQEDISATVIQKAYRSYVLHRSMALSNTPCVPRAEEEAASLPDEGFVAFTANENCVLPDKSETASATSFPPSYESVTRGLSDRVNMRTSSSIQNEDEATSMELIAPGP

IC50	SMILES
≤ 100 nM	C[S@@](=N)(=O)c1cc(NC(=O)c2c(C(F)(F)F)c(C3CC3)nn2C[C@H]2CC23CC3)ccn1 (single isomer, unassigned) [Example 78c, 3-cyclopropyl-N-(2-(S-methylsulfonimidoyl)pyridin-4-yl)-1-(spiro[2.2]pentan-1-ylmethyl)-4-(trifluoromethyl)-1H-pyrazole-5-carboxamide]
≤ 100 nM	CC1(Cn2nc(C3(F)CC3)c(C(F)F)c2C(=O)Nc2cccc(S(C)(=N)=O)c2)CC(F)(F)C1 (single isomer, unassigned) [Example 135b, 1-((3,3-Difluoro-1-methylcyclobutyl)methyl)-4-(difluoromethyl)-3-(1-fluorocyclopropyl)-N-(3-(S-methylsulfonimidoyl)phenyl)-1H-pyrazole-5-carboxamide]
≤ 100 nM	CC1(Cn2nc(C3(F)CC3)c(C(F)(F)F)c2C(=O)Nc2cc(F)cc(S(C)(=N)=O)c2)CC(F)(F)C1 (single isomer, unassigned) [Example 127b, 1-((3,3-Difluoro-1-methylcyclobutyl)methyl)-N-(3-fluoro-5-(S-methylsulfonimidoyl)phenyl)-3-(1-fluorocyclopropyl)-4-(trifluoromethyl)-1H-pyrazole-5-carboxamide]
≤ 100 nM	CC1(Cn2nc(C3CC3)c(C(F)(F)F)c2C(=O)Nc2ccc(F)c(S(C)(=N)=O)c2)CC(F)(F)C1 (single isomer, unassigned) [Example 132b, 3-Cyclopropyl-1-((3,3-difluoro-1-methylcyclobutyl)methyl)-N-(4-fluoro-3-(S-methylsulfonimidoyl)phenyl)-4-(trifluoromethyl)-1H-pyrazole-5-carboxamide]
≤ 100 nM	CC1(Cn2nc(C3CC3(F)F)c(C(F)(F)F)c2C(=O)Nc2ccnc(S(C)(=N)=O)c2)CC(F)(F)C1 (single isomer, unassigned) [Example 63a, 1-((3,3-Difluoro-1-methylcyclobutyl)methyl)-3-(2,2-difluorocyclopropyl)-N-(2-(S-methylsulfonimidoyl)pyridin-4-yl)-4-(trifluoromethyl)-1H-pyrazole-5-carboxamide]
≤ 100 nM	CS(=N)(=O)c1cc(NC(=O)c2c(C(F)(F)F)c(C3CC3)nn2CC23CC(C(F)(F)F)(C2)C3)ccn1 (single isomer, unassigned) [Example 23b, 3-cyclopropyl-N-(2-(S-methylsulfonimidoyl)pyridin-4-yl)-4-(trifluoromethyl)-1-((3-(trifluoromethyl)bicyclo[1.1.1]pentan-1-yl)methyl)-1H-pyrazole-5-carboxamide]
≤ 100 nM	Cc1c(C(C)(F)F)nn(CC23CC(C(F)(F)F)(C2)C3)c1C(=O)Nc1ccnc(S(C)(=N)=O)c1 (single isomer, unassigned) [Example 15a, 3-(1,1-difluoroethyl)-4-methyl-N-(2-(S-methylsulfonimidoyl)pyridin-4-yl)-1-((3-(trifluoromethyl)bicyclo[1.1.1]pentan-1-yl)methyl)-1H-pyrazole-5-carboxamide]
≤ 100 nM	CS(=N)(=O)c1cccc(NC(=O)c2c(C(F)(F)F)c(C34CC(C3)C4)nn2CC2C[C@@H]2C(F)F)c1 (stereo in doubt) [Example 139, 3-(Bicyclo[1.1.1]pentan-1-yl)-1-(((trans)-2-(difluoromethyl)cyclopropyl)methyl)-N-(3-(S-methylsulfonimidoyl)phenyl)-4-(trifluoromethyl)-1H-pyrazole-5-carboxamide]
≤ 100 nM	CC1(Cn2nc(C34CC(F)(C3)C4)c(C(F)(F)F)c2C(=O)Nc2cccc(S(C)(=N)=O)c2)CC(F)(F)C1 (single isomer, unassigned) [Example 111b, 1-((3,3-difluoro-1-methylcyclobutyl)methyl)-3-(3-fluorobicyclo[1.1.1]pentan-1-yl)-N-(3-(S-methylsulfonimidoyl)phenyl)-4-(trifluoromethyl)-1H-pyrazole-5-carboxamide]

Continued, compound first:

SMILES	IC50
CS(=N)(=O)c1cc(NC(=O)c2c(C(F)(F)F)c(C3CC3)nn2CC2(F)CC3(CCC3)C2)ccn1 (single isomer, unassigned) [Example 21b, 3-cyclopropyl-1-((2-fluorospiro[3.3]heptan-2-yl)methyl)-N-(2-(S-methylsulfonimidoyl)pyridin-4-yl)-4-(trifluoromethyl)-1H-pyrazole-5-carboxamide]	≤ 100 nM
CS(=N)(=O)c1cc(NC(=O)c2c(C(F)(F)F)c(C3CC3)nn2CC23CCC(F)(CC2)C3)ccn1 (single isomer, unassigned) [Example 106b, 3-cyclopropyl-1-((4-fluorobicyclo[2.2.1]heptan-1-yl)methyl)-N-(2-(S-methylsulfonimidoyl)pyridin-4-yl)-4-(trifluoromethyl)-1H-pyrazole-5-carboxamide]	≤ 100 nM
CC(=O)N1CC2(CCC2Cn2nc(C3CC3)c(C(F)(F)F)c2C(=O)Nc2ccnc(S(C)(=N)=O)c2)C1 (single isomer, unassigned) [Example 140b, 1-((2-Acetyl-2-azaspiro[3.3]heptan-5-yl)methyl)-3-cyclopropyl-N-(2-(S-methylsulfonimidoyl)pyridin-4-yl)-4-(trifluoromethyl)-1H-pyrazole-5-carboxamide]	100 to 1000 nM
CC1(Cn2nc(C3(C(F)(F)F)CC3)c(C(F)(F)F)c2C(=O)Nc2ccnc(S(C)(=N)=O)c2)CC(F)(F)C1 (single isomer, unassigned) [Example 144b, 1-((3,3-Difluoro-1-methylcyclobutyl)methyl)-N-(2-(S-methylsulfonimidoyl)pyridin-4-yl)-4-(trifluoromethyl)-3-(1-(trifluoromethyl)cyclopropyl)-1H-pyrazole-5-carboxamide]	≤ 100 nM
CC1(Cn2nc(C34CC(F)(C3)C4)c(C(F)(F)F)c2C(=O)Nc2ccnc(S(C)(=N)=O)c2)CC(F)(F)C1 (single isomer, unassigned) [Example 110a, 1-((3,3-Difluoro-1-methylcyclobutyl)methyl)-3-(3-fluorobicyclo[1.1.1]pentan-1-yl)-N-(2-(S-methylsulfonimidoyl)pyridin-4-yl)-4-(trifluoromethyl)-1H-pyrazole-5-carboxamide]	≤ 100 nM
CC1(Cn2nc(C34CC(F)(C3)C4)c(C(F)(F)F)c2C(=O)Nc2ccc(F)c(S(C)(=N)=O)c2)CC(F)(F)C1 (single isomer, unassigned) [Example 141a, 1-((3,3-Difluoro-1-methylcyclobutyl)methyl)-N-(4-fluoro-3-(S-methylsulfonimidoyl)phenyl)-3-(3-fluorobicyclo[1.1.1]pentan-1-yl)-4-(trifluoromethyl)-1H-pyrazole-5-carboxamide]	≤ 100 nM
CC1(Cn2nc(C3(C(F)F)CC3)c(C(F)(F)F)c2C(=O)Nc2ccnc(S(C)(=N)=O)c2)CC(F)(F)C1 (single isomer, unassigned) [Example 145b, 1-((3,3-Difluoro-1-methylcyclobutyl)methyl)-3-(1-(difluoromethyl)cyclopropyl)-N-(2-(S-methylsulfonimidoyl)pyridin-4-yl)-4-(trifluoromethyl)-1H-pyrazole-5-carboxamide]	≤ 100 nM
CS(=N)(=O)c1cc(NC(=O)c2c(C(F)(F)F)c(C3CC3)nn2C[C@@H]2CCC(F)(F)C2)ccn1 (single isomer, unassigned) [Example 17d]	≤ 100 nM
Cc1c(C(C)(F)F)nn(CC2(C)CCC(F)(F)CC2)c1C(=O)Nc1ccnc(S(C)(=N)=O)c1 (single isomer, unassigned) [Example 11b, 1-((4,4-difluoro-1-methylcyclohexyl)methyl)-3-(1,1-difluoroethyl)-4-methyl-N-(2-(S-methylsulfonimidoyl)pyridin-4-yl)-1H-pyrazole-5-carboxamide]	≤ 100 nM
CC1(Cn2nc(C34CC(F)(C3)C4)c(C(F)F)c2C(=O)Nc2ccc(F)c(S(C)(=N)=O)c2)CC(F)(F)C1 (single isomer, unassigned) [Example 138b, 1-((3,3-Difluoro-1-methylcyclobutyl)methyl)-4-(difluoromethyl)-N-(4-fluoro-3-(S-methylsulfonimidoyl)phenyl)-3-(3-fluorobicyclo[1.1.1]pentan-1-yl)-1H-pyrazole-5-carboxamide]	≤ 100 nM
